Tested on: primary breast carcinoma cultures
Test: in vitro chemoresponse assay on primary breast carcinoma cultures (DAPI nuclei count, aAUC of dose response curve)
Assay type: cell-based
Settings: 39 primary breast cancer cultures, single agent, 10 doses 0.108-55.3 μM, 72 hours
Method: After assay development, thirty-nine primary breast carcinoma cultures were treated with sunitinib at the doses shown in Table 1.
All specimens treated with the drug were confirmed to contain a majority of epithelial cells (>65%) via immunocytochemistry. A 10-dose range of drug concentrations was used to treat the cell line and breast specimens for 72 hours. After treatment, the cultures were fixed with ethanol, and stained with DAPI. Any cells remaining adherent after treatment were considered live, and the DAPI stained nuclei were counted. The resulting dose response curves were analyzed.
aAUC values were calculated, essentially as follows:
(Xi is the normalized cell count of dose i)

SMILES: CCN(CC)CCNC(=O)c1c(C)[nH]c(/C=C2\C(=O)Nc3ccc(F)cc32)c1C [sunitinib, Sunitinib]
- share of breast specimens responsive to sunitinib (aAUC of ≦7.85) (3 of 39): 7.6%
- share of breast specimens with intermediate response (aAUC of 7.85-9.22) (8 of 39): 20.5%
- share of breast specimens non-responsive to the drug (aAUC of ≧9.22) (28 of 39): 71.7%

Source: patent US20110207119A1, “METHODS FOR PREDICTING A CANCER PATIENT'S RESPONSE TO SUNITINIB” (priority 2010, published 2011)
